According to patent US20160039825A1 (BIOGEN MA INC., priority 2013, published 2016):
Where a name gives a salt, the structure may show the parent alone.

Biological target: T1, Human ATX protein (Homo sapiens, UniProt Q13822)
T1 construct: made in house
Assay: Autotaxin (ATX) assay, FRET with FS-3 substrate
Type: biochemical
Procedure, shortened: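 Hydrolysis of the FRET substrate FS-3 (2 μM final) unquenches fluorescein, read at excitation 485 nm and emission 538 nm after 2 h at room temperature, protected from light. Purified human ATX (1.0 μg/mL) and compound were first incubated for 30 min in pH 7.4 Tris/salt buffer containing 1 mg/mL fatty acid-free BSA.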

[1] = upper bound bins (no greater than 100, 250 or 500 nM), FS-3 2 μM, ATX 1.0 μg/mL

Row | Compound | IC50 [1] [nM] | also measured
1 | CC(C)(C)OC(=O)N1CCC(c2cc3n(n2)CCCN(C(=O)OCc2cc(C(F)(F)F)cc(C(F)(F)F)c2)C3)CC1 [Example 374, 3,5-bis(trifluoromethyl)benzyl 2-(1-(tert-butoxycarbonyl)piperidin-4-yl)-7,8-dihydro-4H-pyrazolo[1,5-a][1,4]diazepine-5(6H)-carboxylate] | ≤ 100 | 
2 | O=C(OCc1cc(C(F)(F)F)cc(C(F)(F)F)c1)N1CCCn2nc(C3=CC4CCC(C3)N4)cc2C1 (stereo not shown) [Example 376] | ≤ 100 | 
3 | O=C(OCc1cc(C(F)(F)F)cc(C(F)(F)F)c1)N1CCCn2nc(C3CC4CCC(C3)N4)cc2C1 (stereo not shown) [Example 377] | ≤ 100 | 
4 | CN1C2C=C(c3cc4n(n3)CCCN(C(=O)OCc3cc(C(F)(F)F)cc(C(F)(F)F)c3)C4)CC1CC2 (stereo not shown) [Example 379] | ≤ 100 | 
5 | CN1C2CCC1CC(c1cc3n(n1)CCCN(C(=O)OCc1cc(C(F)(F)F)cc(C(F)(F)F)c1)C3)C2 (stereo not shown) [Example 381] | ≤ 100 | 
6 | O=C(OCc1cc(C(F)(F)F)cc(C(F)(F)F)c1)N1CCCn2nc(C3CCNC3)cc2C1 (stereo not shown) [Example 384] | ≤ 250 | 
7 | CN1CCC(c2cc3n(n2)CCCN(C(=O)OCc2cc(C(F)(F)F)cc(C(F)(F)F)c2)C3)C1 (stereo not shown) [Example 385] | ≤ 250 | 
8 | CC(C)(C)OC(=O)N1CCC(c2cc3n(n2)CCN(C(=O)OCc2cc(C(F)(F)F)cc(C(F)(F)F)c2)C3)CC1 [Example 398, 3,5-bis(trifluoromethyl)benzyl 2-(1-(tert-butoxycarbonyl)piperidin-4-yl)-6,7-dihydropyrazolo[1,5-a]pyrazine-5(4H)-carboxylate] | ≤ 100 | 
9 | CC(=O)c1cc2n(n1)CCN(C(=O)OCc1cc(C(F)(F)F)cc(C(F)(F)F)c1)C2 [Example 401, 3,5-bis(trifluoromethyl)benzyl 2-acetyl-6,7-dihydropyrazolo[1,5-a]pyrazine-5(4H)-carboxylate] | ≤ 500 | 
10 | CCOC(=O)C1CN(C(=O)OCc2cc(C(F)(F)F)cc(C(F)(F)F)c2)Cc2ccnn21 (stereo not shown) [Example 405] |  | IC50 (greater than 10 μM): > 10000 nM
11 | COC(=O)C1CN(C(=O)OCc2cc(C(F)(F)F)cc(C(F)(F)F)c2)Cc2ccnn2C1 (stereo not shown) [Example 406] |  | IC50 (greater than 10 μM): > 10000 nM
12 | O=C(OCc1cc(C(F)(F)F)cc(C(F)(F)F)c1)N1CCn2nc(Br)cc2C1 [Example 407] |  | inhibition at 10 µM (10 uM compound): 50%
13 | O=C(O)c1cc2n(n1)CCN(C(=O)OCc1cc(Cl)cc(C(F)(F)F)c1)C2 [Example 410, 5-(((3-chloro-5-(trifluoromethyl)benzyl)oxy)carbonyl)-4,5,6,7-tetrahydropyrazolo[1,5-a]pyrazine-2-carboxylic acid] | ≤ 250 | 
14 | O=C(O)Cn1cc(-c2cc3n(n2)CCCN(C(=O)OCc2cc(C(F)(F)F)cc(C(F)(F)F)c2)C3)cn1 [Example 412] | ≤ 100 | 
15 | O=C(O)C1CN(C(=O)OCc2cc(C(F)(F)F)cc(C(F)(F)F)c2)Cc2ccnn2C1 (stereo not shown) [Example 415] | ≤ 250 | 
16 | O=C(O)C1CCN(C(=O)c2cc3n(n2)CCN(C(=O)OCc2cc(C(F)(F)F)cc(C(F)(F)F)c2)C3)CC1 [Example 418] | ≤ 100 | 
17 | O=C(O)c1cc2n(n1)CCN(C(=O)OCc1cc(C(F)(F)F)cc(C(F)(F)F)c1)C2 [Example 419] | ≤ 250 | 
18 | CC1c2cc(C(=O)O)nn2CCCN1C(=O)CCc1cc(Cl)cc(Cl)c1 (stereo not shown) [Example 420] | ≤ 500 | 
19 | O=C(O)c1cc2n(n1)CC(O)CN(C(=O)OCc1cc(C(F)(F)F)cc(C(F)(F)F)c1)C2 (stereo not shown) [Example 421] | ≤ 500 | 
20 | NC1CCN(C(=O)c2cc3n(n2)CCN(C(=O)OCc2cc(C(F)(F)F)cc(C(F)(F)F)c2)C3)CC1 [Example 422, 3,5-bis(trifluoromethyl)benzyl 2-(4-aminopiperidine-1-carbonyl)-6,7-dihydropyrazolo[1,5-a]pyrazine-5(4H)-carboxylate hydrochloride] | ≤ 100 | 
21 | CC1CNCCN1C(=O)c1cc2n(n1)CCN(C(=O)OCc1cc(C(F)(F)F)cc(C(F)(F)F)c1)C2 (stereo not shown) [Example 423] | ≤ 100 | 
22 | NC1CN(C(=O)c2cc3n(n2)CCN(C(=O)OCc2cc(C(F)(F)F)cc(C(F)(F)F)c2)C3)C1 [Example 424] | ≤ 100 | 
23 | NCCNC(=O)c1cc2n(n1)CCN(C(=O)OCc1cc(C(F)(F)F)cc(C(F)(F)F)c1)C2 [Example 425] | ≤ 100 | 
24 | O=C(OCc1cc(C(F)(F)F)cc(C(F)(F)F)c1)N1CCn2nc(C(=O)N3C4CCC3CNC4)cc2C1 [Example 426] | ≤ 100 | 
25 | CC(c1cc2n(n1)CCN(C(=O)OCc1cc(C(F)(F)F)cc(C(F)(F)F)c1)C2)N1CC2CCC(C1)N2 (stereo not shown) [Example 427] | ≤ 100 | 
26 | CC(c1cc2n(n1)CCN(C(=O)OCc1cc(C(F)(F)F)cc(C(F)(F)F)c1)C2)N1C2CCC1CNC2 (stereo not shown) [Example 428] | ≤ 100 | 
27 | O=C(OCc1cc(Cl)cc(C(F)(F)F)c1)N1CCn2nc(C(=O)N3CC4CCC(C3)N4)cc2C1 [Example 429] | ≤ 100 | 
28 | CC1CNCC(C)N1C(=O)c1cc2n(n1)CCN(C(=O)OCc1cc(C(F)(F)F)cc(C(F)(F)F)c1)C2 (stereo not shown) [Example 430] | ≤ 100 | 
29 | NC1CN(C(=O)c2cc3n(n2)CCN(C(=O)OCc2cc(Cl)cc(C(F)(F)F)c2)C3)C1 [Example 431] | ≤ 100 | 

The next lines start with results.

Row | IC50 [1] [nM] | Compound | also measured
30 | ≤ 100 | O=C(OCc1cc(C(F)(F)F)cc(C(F)(F)F)c1)N1CCCn2nc(C3CCNCC3)cc2C1 [Example 375, 3,5-bis(trifluoromethyl)benzyl 2-(piperidin-4-yl)-7,8-dihydro-4H-pyrazolo[1,5-a][1,4]diazepine-5(6H)-carboxylate] | 
31 | ≤ 100 | CC1C=C(c2cc3n(n2)CCCN(C(=O)OCc2cc(C(F)(F)F)cc(C(F)(F)F)c2)C3)CC(C)N1 (stereo not shown) [Example 378] | 
32 | ≤ 100 | O=C(OCc1cc(C(F)(F)F)cc(C(F)(F)F)c1)N1CCCn2nc(C3CCCNC3)cc2C1 (stereo not shown) [Example 380] | 
33 | ≤ 100 | CC1CC(c2cc3n(n2)CCCN(C(=O)OCc2cc(C(F)(F)F)cc(C(F)(F)F)c2)C3)CC(C)N1 (stereo not shown) [Example 382] | 
34 | ≤ 100 | CC(C)(C)OC(=O)N1CCC(c2cc3n(n2)CCCN(C(=O)OCc2cc(C(F)(F)F)cc(C(F)(F)F)c2)C3)C1 (stereo not shown) [Example 383] | 
35 | ≤ 100 | O=C(O)Cc1cc2n(n1)CCCN(C(=O)OCc1cc(C(F)(F)F)cc(C(F)(F)F)c1)C2 [Example 386, 2-(5-(((3,5-bis(Trifluoromethyl)benzyl)oxy)carbonyl)-5,6,7,8-tetrahydro-4H-pyrazolo[1,5-a][1,4]diazepin-2-yl)acetic acid] | 
36 | ≤ 100 | CC(C(=O)O)c1cc2n(n1)CCCN(C(=O)OCc1cc(C(F)(F)F)cc(C(F)(F)F)c1)C2 (stereo not shown) [Example 387, 2-(5-(((3,5-bis(Trifluoromethyl)benzyl)oxy)carbonyl)-5,6,7,8-tetrahydro-4H-pyrazolo[1,5-a][1,4]diazepin-2-yl)propanoic acid] | 
37 | ≤ 100 | CC(C)(C(=O)O)c1cc2n(n1)CCCN(C(=O)OCc1cc(C(F)(F)F)cc(C(F)(F)F)c1)C2 [Example 388] | 
38 | ≤ 100 | NC(C(=O)O)c1cc2n(n1)CCCN(C(=O)OCc1cc(C(F)(F)F)cc(C(F)(F)F)c1)C2 (stereo not shown) [Example 390, 2-Amino-2-(5-(((3,5-bis(trifluoromethyl)benzyl)oxy)carbonyl)-5,6,7,8-tetrahydro-4H-pyrazolo[1,5-a][1,4]diazepin-2-yl)acetic acid] | 
39 | ≤ 100 | Cc1nc(-c2cc3n(n2)CCCN(C(=O)OCc2cc(C(F)(F)F)cc(C(F)(F)F)c2)C3)no1 [Example 392, 3,5-bis(Trifluoromethyl)benzyl 2-(5-methyl-1,2,4-oxadiazol-3-yl)-7,8-dihydro-4H-pyrazolo[1,5-a][1,4]diazepine-5(6H)-carboxylate] | 
40 | ≤ 100 | CN1CCN(c2cc3n(n2)CCN(C(=O)OCc2cc(C(F)(F)F)cc(C(F)(F)F)c2)C3)CC1 [Example 393, 3,5-bis(Trifluoromethyl)benzyl 2-(4-methylpiperazin-1-yl)-6,7-dihydropyrazolo[1,5-a]pyrazine-5(4H)-carboxylate] | 
41 | ≤ 100 | O=C(OCc1cc(C(F)(F)F)cc(C(F)(F)F)c1)N1CCn2nc(N3CCNCC3)cc2C1 [Example 394, 3,5-bis(trifluoromethyl)benzyl 2-(piperazin-1-yl)-6,7-dihydropyrazolo[1,5-a]pyrazine-5(4H)-carboxylate] | 
42 | ≤ 100 | CC(N)c1cc2n(n1)CCN(C(=O)OCc1cc(C(F)(F)F)cc(C(F)(F)F)c1)C2 (stereo not shown) [Example 395, 3,5-bis(Trifluoromethyl)benzyl 2-(1-aminoethyl)-6,7-dihydropyrazolo[1,5-a]pyrazine-5(4H)-carboxylate] | 
43 | ≤ 100 | CC(O)c1cc2n(n1)CCN(C(=O)OCc1cc(C(F)(F)F)cc(C(F)(F)F)c1)C2 (stereo not shown) [Example 396, 3,5-bis(Trifluoromethyl)benzyl 2-(1-hydroxyethyl)-6,7-dihydropyrazolo[1,5-a]pyrazine-5(4H)-carboxylate] | 
44 | ≤ 100 | O=C(O)c1nn2c(c1F)CN(C(=O)OCc1cc(Cl)cc(C(F)(F)F)c1)CCC2 [Example 399, 5-(((3-chloro-5-(trifluoromethyl)benzyl)oxy)carbonyl)-3-fluoro-5,6,7,8-tetrahydro-4H-pyrazolo[1,5-a][1,4]diazepine-2-carboxylic acid] | 
45 | ≤ 100 | CON(C)C(=O)c1cc2n(n1)CCN(C(=O)OCc1cc(C(F)(F)F)cc(C(F)(F)F)c1)C2 [Example 400, 3,5-bis(trifluoromethyl)benzyl 2-(methoxy(methyl)carbamoyl)-6,7-dihydropyrazolo[1,5-a]pyrazine-5(4H)-carboxylate] | 
46 | ≤ 100 | CCOC(=O)c1cc2n(n1)CCN(C(=O)OCc1cc(Cl)cc(C(F)(F)F)c1)C2 [Example 402, 5-(3-chloro-5-(trifluoromethyl)benzyl) 2-ethyl 6,7-dihydropyrazolo[1,5-a]pyrazine-2,5(4H)-dicarboxylate] | 
47 | ≤ 100 | CCOC(=O)c1cc2n(n1)CCN(C(=O)OCc1cc(C(F)(F)F)cc(C(F)(F)F)c1)C2 [Example 403] | 
48 | ≤ 100 | CCOC(=O)c1cc2n(n1)CCCN(C(=O)OCc1cc(Cl)cc(C(F)(F)F)c1)C2 [Example 404] | 
49 | ≤ 100 | CCOC(=O)c1cc2n(n1)CC(O)CN(C(=O)OCc1cc(C(F)(F)F)cc(C(F)(F)F)c1)C2 (stereo not shown) [Example 409] | 
